According to patent publication US20060069132A1, “Azolecarboxamide herbicides” (priority 2004, published 2006):

How the values were obtained:
[1] = system: blackgrass; assay: Test B postemergence herbicide test; type: in vivo, Alopecurus myosuroides
Procedure, shortened: (§1)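 After treating 2-leaf paddy plants or 2–18 cm postemergence plants (1 to 4 leaves) with formulated chemical, researchers kept them in a greenhouse for 13–15 days. Effects were judged visually versus controls: 0 indicates none, 100 total control.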

[2] = system: ducksalad; assay: Test B flooded paddy test; type: in vivo, Heteranthera limosa; details: 1000 g ai/ha, scale 0 to 100 (0 no effect, 100 complete control)
Procedure, shortened: as §1

[3] = system: cocklebur; assay: Test C pre-/postemergence herbicide test; type: in vivo, Xanthium strumarium
From the text: (§2) Seeds of plant species selected from bermudagrass (Cynodon dactylon (L.) Pers.), Surinam grass (Urochloa decumbens (Staph) R. D. Webster, previously named Brachiaria decumbens Stapf), cocklebur (Xanthium strumarium L.), corn (Zea mays L.), large crabgrass (Digitaria sanguinalis (L.) Scop.), woolly cupgrass (Eriochloa villosa (Thunb.) Kunth), giant foxtail (Setaria faberi Herrm.), goosegrass (Eleusine indica (L.) Gaertn.), johnsongrass (Sorghum halepense (L.) Pers.), kochia (Kochia scoparia (L.) Schrad.), lambsquarters (Chenopodium album L.), morningglory (Ipomoea coccinea L.), eastern black nightshade (Solanum ptycanthum Dunal), yellow nutsedge (Cyperus esculentus L.), pigweed (Amaranthus retroflexus L.), common ragweed (Ambrosia elatior L.), soybean (Glycine max (L.) Merr.), common (oilseed) sunflower (Helianthus annuus L.) and velvetleaf (Abutilon theophrasti Medik.) were planted and treated preemergence with test chemicals formulated in a non-phytotoxic solvent mixture which included a surfactant.
(§3) At the same time, plants selected from these crop and weed species and also winter barley (Hordeum vulgare L.), blackgrass (Alopecurus myosuroides Huds.), canarygrass (Phalaris minor Retz.), chickweed (Stellaria media (L.) Vill.), downy bromegrass (Bromus tectorum L.), green foxtail (Setaria viridis (L.) Beauv.), Italian ryegrass (Lolium multiflorum Lam.), wheat (Triticum aestivum L.), wild oat (Avenafatua L.) and windgrass (Apera spica-venti (L.) Beauv.) were treated with postemergence applications of some of the test chemicals formulated in the same manner. Plants ranged in height from 2 to 18 cm (1- to 4-leaf stage) for postemergence treatments. Plant species in the flooded paddy test consisted of rice (Oryza sativa), smallflower umbrella sedge (Cyperus difformis L.), ducksalad (Heteranthera limosa (Sw.) Willd.) and barnyardgrass (Echinochloa crus-galli (L.) Beauv.) grown to the 2-leaf stage for testing. Treated plants and controls were maintained in a greenhouse for 12 to 14 days, after which time all species were compared to controls and visually evaluated. Plant response ratings, summarized in Table C, are based on a scale of 0 to 100 where 0 is no effect and 100 is complete control. A dash (-) response means no test result.

[4] = system: corn; assay: Test C pre-/postemergence herbicide test; type: in vivo, Zea mays
From the text: as §2, §3

[5] = system: woolly cupgrass; assay: Test C pre-/postemergence herbicide test; type: in vivo, Eriochloa villosa
From the text: as §2, §3

[6] = system: common (oilseed) sunflower; assay: Test C pre-/postemergence herbicide test; type: in vivo, Helianthus annuus; details: for Plant response rating (0 = no effect, 100 = complete control), Sunflower / Plant response rating, Sunflower: preemergence
From the text: as §2, §3

[7] = system: ducksalad; assay: Test C flooded paddy test; type: in vivo, Heteranthera limosa
[8] = 125 g ai/ha, scale 0 (no effect) to 100 (complete control), visual, 12 to 14 days, preemergence
[9] = 250 g ai/ha, scale 0 to 100 (0 no effect, 100 complete control), visual, 12 to 14 days, preemergence
[10] = Postemergence, 500 g ai/ha, scale 0 to 100
[11] = Postemergence, 125 g ai/ha, scale 0 to 100, 0 no effect, 100 complete control
[12] = Postemergence, 250 g ai/ha, scale 0 to 100, 0 no effect, 100 complete control
[13] = Preemergence, 500 g ai/ha, scale 0 to 100, 0 no effect, 100 complete control
[14] = postemergence, 62 g ai/ha, scale 0 to 100
[15] = Postemergence, 500 g ai/ha, scale 0 (no effect) to 100 (complete control)
[16] = 62 g ai/ha, preemergence, scale 0 to 100
[17] = 250 g ai/ha, scale 0-100, preemergence
[18] = 500 g ai/ha, scale 0 to 100 (0 no effect, 100 complete control), visual, 12 to 14 days, preemergence

C#CCn1nc(C(C)(C)C)cc1C(=O)Nc1cccc(C(=O)NCC)c1 [Compound 50]
Plant response rating, Blackgrass ([1]; Postemergence, 500 g ai/ha, visual rating after 13 to 15 days, scale 0 (no effect) to 100 (complete control)): 30
Blackgrass plant response rating ([1]; postemergence, 125 g ai/ha, visual rating, scale 0 (no effect) to 100 (complete control)): 20
Ducksalad plant response rating ([2]; visual rating, 13 to 15 days): 70
Plant response rating (0 = no effect, 100 = complete control), Cocklebur ([3]; 62 g ai/ha, preemergence): 0
Plant response rating, Cocklebur [3, 8]: 10
Plant response rating, Cocklebur [3, 9]: 80
Cocklebur plant response rating [3, 10]: 10
Plant response rating, Cocklebur [3, 11]: 10
Plant response rating, Cocklebur [3, 12]: 10
Cocklebur plant response rating [3, 13]: 80
Plant response rating, Cocklebur [3, 14]: 10
Plant response rating (0 = no effect, 100 = complete control), Corn ([4]; 62 g ai/ha, preemergence): 0
Plant response rating, Corn [4, 8]: 0
Plant response rating, Corn [4, 9]: 0
Corn plant response rating [4, 10]: 85
Plant response rating, Corn [4, 11]: 80
Plant response rating, Corn [4, 12]: 85
Corn plant response rating [4, 13]: 10
Plant response rating, Corn [4, 14]: 20
Plant response rating (0 = no effect, 100 = complete control), Cupgrass, Woolly ([5]; 62 g ai/ha, preemergence): 0
Plant response rating, Cupgrass, Woolly [5, 8]: 10
Plant response rating, Cupgrass, Woolly [5, 9]: 30
Cupgrass, Woolly plant response rating [5, 10]: 0
Plant response rating, Cupgrass, Woolly [5, 11]: 0
Plant response rating, Cupgrass, Woolly [5, 12]: 0
Cupgrass, Woolly plant response rating [5, 13]: 70
Plant response rating, Cupgrass, Woolly [5, 14]: 0
Plant response rating (0 = no effect, 100 = complete control), Sunflower ([6]; 62 g ai/ha): 0
Plant response rating, Sunflower ([6]; 125 g ai/ha, scale 0 (no effect) to 100 (complete control), visual, 12 to 14 days): 0
Plant response rating, Sunflower ([6]; 250 g ai/ha, scale 0 to 100 (0 no effect, 100 complete control), visual, 12 to 14 days): 0
Sunflower plant response rating [6, 13]: 0

Cc1nn(C(C)(C)C)nc1C(=O)Nc1cccc(C(=O)N2CC=CC2)c1 [Compound 393]
Blackgrass plant response rating ([1]; 125 g ai/ha, visual rating, scale 0 (no effect) to 100 (complete control), postemergence): 20
Blackgrass plant response rating [1, 15]: 40
Ducksalad plant response rating [2]: 90
Plant response rating, Cocklebur [3, 16]: 0
Plant response rating (0 = no effect, 100 = complete control), Cocklebur ([3]; 125 g ai/ha, preemergence): 100
Plant response rating, Cocklebur [3, 17]: 100
Plant response rating, Cocklebur [3, 18]: 100
Plant response rating, Corn [4, 16]: 55
Plant response rating, Corn [4, 17]: 75
Plant response rating, Corn [4, 18]: 100
Plant response rating, Cupgrass, Woolly [5, 16]: 30
Plant response rating (0 = no effect, 100 = complete control), Cupgrass, Woolly ([5]; 125 g ai/ha, preemergence): 70
Plant response rating, Cupgrass, Woolly [5, 17]: 90
Plant response rating, Cupgrass, Woolly [5, 18]: 100
Ducksalad plant response rating ([7]; 62 g ai/ha, scale 0 to 100): 75
Ducksalad plant response rating ([7]; 125 g ai/ha, scale 0 to 100 (0 no effect, 100 complete control)): 75
Ducksalad plant response rating ([7]; 250 g ai/ha, scale of 0 to 100, 0 is no effect, 100 is complete control): 80
Plant response rating, Ducksalad ([7]; 500 g ai/ha, visual rating after 12 to 14 days, scale 0 to 100 (0 no effect, 100 complete control)): 90

C=CCNC(=O)c1cccc(NC(=O)c2nn(C(C)(C)C)nc2CC)c1 [Compound 414]
Blackgrass plant response rating [1, 15]: 50
Blackgrass plant response rating ([1]; postemergence, 125 g ai/ha, scale 0 to 100): 40
Ducksalad plant response rating [2]: 90
Plant response rating, Cocklebur [3, 16]: 0
Plant response rating (0 = no effect, 100 = complete control), Cocklebur ([3]; 125 g ai/ha, preemergence): 15
Plant response rating, Cocklebur [3, 17]: 20
Plant response rating, Cocklebur [3, 18]: 30
Plant response rating, Corn [4, 16]: 0
Plant response rating (0 = no effect, 100 = complete control), Corn ([4]; 125 g ai/ha, preemergence): 0
Plant response rating, Corn [4, 17]: 50
Plant response rating, Corn [4, 18]: 80
Plant response rating, Cupgrass, Woolly [5, 16]: 0
Plant response rating (0 = no effect, 100 = complete control), Cupgrass, Woolly ([5]; 125 g ai/ha, preemergence): 80
Plant response rating, Cupgrass, Woolly [5, 17]: 95
Plant response rating, Cupgrass, Woolly [5, 18]: 100
Plant response rating, Sunflower ([6]; 62 g ai/ha, scale 0 to 100): 0
Plant response rating (0 = no effect, 100 = complete control), Sunflower ([6]; 125 g ai/ha): 0
Plant response rating, Sunflower ([6]; 500 g ai/ha, scale 0 to 100 (0 no effect, 100 complete control), visual, 12 to 14 days): 0
